Experimental data taken from patent US20070202047A1, “Polyamine-substituted ligands for use as contrast agents” (priority 2006, published 2007).
“And” between values parts separate entries of the source, which are not always exact repeats. Identical values can stand only once.

What was measured:
[1] = tested on: subcutaneous MH3924A tumor; assay: MRI of ACI rats bearing a subcutaneous MH3924A tumor; type: in vivo, rat; conditions: 0.1 mmol/kg i.v., 2.35 T
Method: Animal models. For in vivo tumor studies 2×10^6 MH3924A tumor cells were injected subcutaneously into the right thigh of male ACI rats (Charles River, Sulzfeld, Germany) weighing 220 to 260 g. All animal experiments were performed in compliance with the German Animal Protection Laws (Permission 35-9185.81/G-7-03, Reg.-Praesidium, Karlsruhe, Germany).
MRI. At 25 days after inoculation, when tumors had reached a diameter of ca. 10-15 mm, the MR imaging experiments were initiated. ACI rats were anesthetized by intravenous injection of ketamin (Ketanest®, 0.1 mg/g body wt.; Parke-Davis, Berlin, Germany). Then a dose of 0.1 mmol/kg Magnevist® or Gadovist® (Schering, Berlin, Germany) or one of the synthesized agents Gd-3.1., Gd-5.1. or Gd-6.1. was injected intravenously into a lateral tail vein. For one experiment a higher dose (0.36 mmol/kg) of Magnevist® was used. Individual rats were examined by MRI at 1 h and 24 h post Gd, in the case of Magnevist® also at ca. 15 min post Gd. Proton imaging studies were performed at 2.35 T (100.3 MHz) with a Biospec 24/40 instrument (Bruker BioSpin MRI, Ettlingen, Germany). […] Two transaxial multislice imaging protocols were applied with a field of view of 70×70 mm, 128 time-domain data points, 96 phase-encoding steps, and 16 slices of 2 mm thickness. A multi-spin-echo sequence was used for proton-density and T2-weighted images (repetition time TR=2 s, 12 echoes with echo times TE of 8, 16, 24, . . . 96 ms, number of averages=1), and a spoiled gradient-echo sequence was used for T1-weighted imaging (TR=212 ms, TE=5 ms, flip angle=60°, number of averages=3). The data were Fourier transformed to give a 128×128 image matrix with 0.55 mm pixel resolution. Analogous T1-weighted images with coronal slices were acquired with a field of view of 80×80 mm and 3-mm slice thickness.
Imaging viewing, ROI analysis and export of TIFF files was performed with the freeware MRIcro from Chris Rorden (http://people.cas.sc.edu/rorden/mricro.html).

human serum albumin = biological target: T1, human serum albumin (Homo sapiens, UniProt P02768); assay: Serum albumin binding (ultrafiltration, ICP-MS); type: in vitro ADME; conditions: 20 μM complex, 40 g/L HSA, 37° C.; for binding of complex to human serum albumin: 30 or 90 min
T1 construct: purchased Behring, Bern, Switzerland
Method: Serum albumin binding. Solutions containing 20 μM Gd-3.1., Gd-5.1. or Gd-6.1. and 40 g/L human serum albumin (Behring, Bern, Switzerland) were incubated at 37° C. for 30 or 90 min. The solutions were subjected to ultrafiltration (filter cutoff 20 kD; Sartorius, Göttingen, Germany), and the amount of unbound complex was determined in the ultrafiltrate with ICP-MS (n=2).
HSA Binding: 20 μM solutions of the complexes were incubated at 37° C. for 30 and 90 minutes in a solution of 40 g HSA/L (Behring, Bern; Switzerland). The amount of unbound complex was determined in ultrafiltrates with ICP-MS.

[2] = tested on: MH3924A Morris hepatoma cells; assay: Intracellular uptake of gadolinium complexes (ICP-MS); type: cell-based, rat; conditions: MH3924A cells; for intracellular uptake of gadolinium complex: 24-h incubation
Method: Cell culture. B16 melanoma cells (mouse) and MH3924A Morris hepatoma cells (rat) were obtained from the German Cancer Research Center (DKFZ) tumor bank and grown at 37° C. as stock cultures in RPMI 1640 supplemented with 10% fetal calf serum and 1% glutamine as standard medium under a 5% CO2 atmosphere (all components: Pan Biotech GmbH, Aidenbach, Germany). For contrast agent uptake studies 10^6 cells were inoculated into 25 cm^2 culture flasks (BD Biosciences, Bedford, USA) and grown for 24 h in 10 mL of the standard culture medium. Cells were then incubated for an additional 24 h (1 h for temperature dependence studies) with fresh medium containing 0, 1, 2.5, 5 or 10 μM of the selected gadolinium complex (three replicate flasks for each incubation). Afterwards the medium was removed, cells were trypsinated, washed twice, resuspended in culture medium and counted (typical yields: 3.5-6 million cells). For comparison 2.5×10^5 human melanocytes (Promo Cell, Heidelberg, Germany) were incubated for 24 h with melanocyte growth medium (Promo Cell, Heidelberg, Germany) containing 0, 1, 2.5, 5 or 10 μM of the selected gadolinium complex (two replicate flasks for each incubation). The work up procedure was as described above typically yielding 2.5×10^5 cells. Cultured human hepatocytes (Cytonet GmbH, Weinheim, Germany) embedded in a collagen matrix in a 12 well microtiter plate, with 6×10^5 viable cells per well were incubated for 24 h in hepatocyte growth medium (Cytonet GmbH, Weinheim, Germany) containing the same concentration series of selected gadolinium complexes. Afterwards the medium was removed, cells were separated using collagenase (Roche Diagnostics, Mannheim, Germany). After digestion the cells were washed twice with PBS, resuspended in culture medium and counted (typical yields: 6×10^5 cells per tube). The intracellular gadolinium content was determined by ICP-MS as described below.
ICP-MS. Samples containing the above mentioned number of harvested cells were digested with 50% concentrated HNO3 (Superselect; Merck, Darmstadt, Germany) under microwave heating with a Mars 5 apparatus (CEM GmbH, Kamp-Lintfort, Germany). To each sample 100 μL of an aqueous solution of rhodium chloride (1 μg/mL) were added so that Rh-103 could be used as an internal quantification standard. Gd-160 measurements were performed with the ICP-MS instrument mentioned above. The gadolinium concentrations were determined using standard curves created prior to cell analyses. For each uptake incubation condition triplicate cell samples were analyzed, and Gd content for each sample was recorded as the mean of two MS determinations.
Intracellular Uptake of Gadolinium Complexes. B16 melanoma and MH3924A hepatoma cells as well as human melanocytes and hepatocytes were incubated for 24 h in the presence of the gadolinium complexes shown in FIG. 1, using concentrations in the range of 1-10 μM. Incubations with the unsubstituted [Gd(DTPA)(H2O)]^2−complex (Magnevist®) served as controls. Following cell harvest and hydrolysis, inductively coupled plasma mass spectrometry (ICP-MS) with direct detection of gadolinium was used to quantitate complex uptake (triplicate cultures for each incubation).
Cell Uptake Studies. A493 (human kidney), B16 melanoma cells (mouse), HeLa (human cervix), MCF-7 (human breats), MH3924A (Morris hepatoma) cells (rat) and 3T3 NIH (mouse fibroblasts) were obtained from the DKFZ tumor cell collection. 3×10^6 cells of each cell type were grown for 24 hours in culture flasks. Afterwards they were incubated for 1 hour in 10 mL culture media containing 0, 10, 50 and 100 μM of Gd-2.2. Gd-3.2 or Gd-4.2. Afterwards the medium was removed, the cells were trypsinated, washed twice, resuspended in culture medium and counted. The gadolinium uptake was determined in triplicate. […] cells were incubated with 0, 1, 2.5, 5 and 10 μM of the Gd-1.2. and Gd-5.2. for 24 h. […]

T1 sequence (P02768 25-609): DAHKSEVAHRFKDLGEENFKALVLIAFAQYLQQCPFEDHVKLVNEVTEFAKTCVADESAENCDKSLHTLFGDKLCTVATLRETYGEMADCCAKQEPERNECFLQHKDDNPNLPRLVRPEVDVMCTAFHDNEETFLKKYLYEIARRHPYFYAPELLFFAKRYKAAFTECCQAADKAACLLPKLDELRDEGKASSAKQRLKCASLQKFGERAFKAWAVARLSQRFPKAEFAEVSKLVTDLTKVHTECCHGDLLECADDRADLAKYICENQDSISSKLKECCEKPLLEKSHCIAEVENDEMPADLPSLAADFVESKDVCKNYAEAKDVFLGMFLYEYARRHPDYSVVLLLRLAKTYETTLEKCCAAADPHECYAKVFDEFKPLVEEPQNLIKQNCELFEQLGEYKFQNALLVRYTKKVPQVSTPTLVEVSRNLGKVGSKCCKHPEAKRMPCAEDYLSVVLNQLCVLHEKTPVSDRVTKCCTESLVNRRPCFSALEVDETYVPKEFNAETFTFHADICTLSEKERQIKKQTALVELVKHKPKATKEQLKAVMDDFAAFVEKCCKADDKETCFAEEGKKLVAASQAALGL

Compound	contrast ratio tumor vs. muscle tissue, T1 weighting ([1]; 1 h post Gd)	contrast ratio tumor vs. muscle tissue, T1 weighting ([1]; 24 h post Gd)	binding of complex to human serum albumin (human serum albumin)	complex found to be free (unbound) (human serum albumin; ultrafiltrate)	intracellular uptake of gadolinium complex ([2]; 10 μM)	observed factor of decrease in uptake at 4° C. vs. 37° C. ([2]; 1 h (FIG. 3A))	uptake over 1 h at 4° C. ([2]; 1 h, 4° C., 10 μM)	uptake over 1 h at 37° C. ([2]; 1 h, 37° C., 10 μM)
CCN(CC)CCNC(=O)CN(CCN(CCN(CC(=O)[O-])CC(=O)N(CCN)CCN)CC(=O)[O-])CC(=O)[O-].[Gd+3] [Gd-3.1]	1.22	1.11	no significant binding of complex to protein	93±6%	0.175±0.0013 fmol/cell and 0.175 fmol/cell	–	–	–
NCCN(CCN)C(=O)CN(CCN(CCN(CC(=O)[O-])CC(=O)N(CCN)CCN)CC(=O)[O-])CC(=O)[O-].[Gd+3] [Gd-5.1]	1.11	1.08	no significant binding of complex to protein	–	0.053±0.005 fmol/cell	~6.5	0.00064±0.00004 fmol/cell	0.008±0.00041 fmol/cell
NCCCCN(CCCN)C(=O)CN(CCN(CCN(CC(=O)[O-])CC(=O)N(CCCN)CCCCN)CC(=O)[O-])CC(=O)[O-].[Gd+3] [Gd-6.1]	1.49	1.21	no significant binding of complex to protein	–	0.108 fmol/cell	–	–	–
